Results on eight compounds are retold here after US4187245A, “Hydroxypropylene-amino-phosphonic-sulfonic acids” (Petrolite Corporation, priority 1978, dated 1980).

A short description of assay [1]: Calcium Scale Inhibition Test. The settings on record: 180° F., samples at 2 and 4 hours. Here is the method:
Calcium Scale Inhibition Test
The procedure utilized to determine the effectiveness of scale inhibitors in regard to calcium scale is as follows:
Several 50 ml. samples of a 0.04 sodium bicarbonate solution are placed in 100 ml. bottles. To these solutions is added the inhibitor in various known concentrations. 50 ml. samples of a 0.02 M CaCl2 solution are then added.
A total hardness determination is then made on the 50--50 mixture utilizing the well known Schwarzenbach titration. The samples are placed in a water bath and heated at 180° F. 10 ml. samples are taken from each bottle at 2 and 4 hour periods. These samples are filtered through millipore filters and the total hardness of the filtrates are determined by titration. [formula]

The conditions of assay [2]: prior-art background; cited from earlier work.

Where a name gives a salt, the structure may show the parent alone.

Turning to `NCCNCC(O)CS(=O)(=O)O` (stereo not drawn) [Example 7], in assay [1] (50 ppm), the “% Inhibition (Calcium Scale Inhibition)” value is given as 50%. Consider `O=S(=O)(O)CC(O)CNCCNCC(O)CS(=O)(=O)O` (stereo not drawn) [Example 8], for which, in assay [1] (50 ppm), the “% Inhibition (Calcium Scale Inhibition)” value is 45%. On to `NCCNCCNCC(O)CS(=O)(=O)O` (stereo not drawn) [Example 9], for which the “% Inhibition (Calcium Scale Inhibition)” value in assay [1] (50 ppm) was found to be 45%.

As for `O=S(=O)(O)CC(O)CNCCNCCNCC(O)CS(=O)(=O)O` (stereo not drawn) [Example 10], the “% Inhibition (Calcium Scale Inhibition)” value in assay [1] (25 ppm) was 45%.

For `O=P(O)(O)CN(CCN(CP(=O)(O)O)CP(=O)(O)O)CC(O)CS(=O)(=O)O` (stereo not drawn) [Example 16], the “% Inhibition (Calcium Scale Inhibition)” value was 91% in assay [1] (10 ppm) and 100% in assay [1] (25 ppm). Regarding `O=P(O)(O)CN(CCN(CC(O)CS(=O)(=O)O)CP(=O)(O)O)CC(O)CS(=O)(=O)O` (stereo not drawn) [Example 17], the “% Inhibition (Calcium Scale Inhibition)” value stood at 72% in assay [1] (15 ppm), 96% in assay [1] (25 ppm) and 100% in assay [1] (50 ppm). With `O=P(O)(O)CN(CCN(CC(O)CS(=O)(=O)O)CP(=O)(O)O)CCN(CC(O)CS(=O)(=O)O)CP(=O)(O)O` (stereo not drawn) [Example 19], the results for the “% Inhibition (Calcium Scale Inhibition)” value in assay [1] (25 ppm) and in assay [1] (50 ppm) were 86% and 100%, respectively. For the compound `O=C(O)CN(CCN(CC(=O)O)CC(=O)O)CC(=O)O` [ethylenediamine tetracetic acid salts], the threshold activities result in assay [2] was “no threshold activities”.
